The test system of this assay is HCV pseudotype (HIV core proteins, HCV E1 and E2 of strain H77). The conditions noted are these: for Percent inhibition: 25 μM.
Setting [1] is: HCV H77 1a E2 peptides at ~25 μM, Table 7, virus alone 448,123.
The mark [2] stands for this setting: HCV J4 1b E2 peptides at ~25 μM, Table 8, controls as in Table 7.

Where two headings read alike, the source gives them in different places. Peptide text beside a SMILES is read from it.

On to `CC[C@H](C)[C@H](NC(=O)CNC(=O)[C@H](CS)NC(=O)[C@@H]1CCCN1C(=O)[C@H](CCCNC(=N)N)NC(=O)[C@@H]1CCCN1C(=O)[C@@H]1CCCN1C(=O)[C@H](Cc1ccc(O)cc1)NC(=O)[C@H](Cc1c[nH]cn1)NC(=O)[C@H](Cc1c[nH]c2ccccc12)NC(=O)[C@H](CS)NC(=O)[C@H](Cc1ccc(O)cc1)NC(=O)[C@@H]1CCCN1)C(=O)N[C@H](C(=O)N1CCC[C@H]1C(=O)N[C@@H](C)C(=O)N[C@@H](CCCCN)C(=O)N[C@@H](CO)C(=O)O)C(C)C` [compound 15, PYCWHYPPRPCGIVPAKS] (H-PYCWHYPPRPCGIVPAKS-OH; N-terminus and C-terminus assumed), for which the Percent inhibition is 43.5%. In addition, the Luciferase units under setting [1] was 253,410 luciferase units (lumens).
The corresponding values for `CC[C@H](C)[C@H](NC(=O)CNC(=O)[C@H](CS)NC(=O)[C@@H]1CCCN1C(=O)[C@H](CCCNC(=N)N)NC(=O)[C@@H]1CCCN1)C(=O)N[C@H](C(=O)N1CCC[C@H]1C(=O)N[C@@H](C)C(=O)N[C@@H](CCCCN)C(=O)N[C@@H](CO)C(=O)N[C@H](C(=O)N[C@@H](CS)C(=O)NCC(=O)N1CCC[C@H]1C(=O)N[C@H](C(=O)N[C@@H](Cc1ccc(O)cc1)C(=O)N[C@@H](CS)C(=O)O)C(C)C)C(C)C)C(C)C` [compound 16, PRPCGIVPAKSVCGPVYC] (H-PRPCGIVPAKSVCGPVYC-OH; N-terminus and C-terminus assumed) are 10.0% and 403,430 luciferase units (lumens).
The corresponding values for `CC(C)[C@H](NC(=O)[C@@H](NC(=O)[C@@H]1CCCN1C(=O)[C@H](CO)NC(=O)[C@@H]1CCCN1C(=O)[C@@H](NC(=O)[C@H](Cc1ccccc1)NC(=O)[C@H](CS)NC(=O)[C@H](Cc1ccc(O)cc1)NC(=O)[C@@H](NC(=O)[C@@H]1CCCN1C(=O)CNC(=O)[C@H](CS)NC(=O)[C@@H](NC(=O)[C@H](CO)NC(=O)[C@H](CCCCN)NC(=O)[C@H](C)NC(=O)[C@@H]1CCCN1)C(C)C)C(C)C)[C@@H](C)O)C(C)C)C(=O)O` [compound 17, PAKSVCGPVYCFTPSPVV] (H-PAKSVCGPVYCFTPSPVV-OH; N-terminus and C-terminus assumed) are 43.2% and 254,516 luciferase units (lumens).
The corresponding values for `CC[C@H](C)[C@H](NC(=O)[C@@H](NC(=O)[C@H](CS)NC(=O)[C@@H]1CCCN1)C(C)C)C(=O)NCC(=O)NCC(=O)N[C@H](C(=O)NCC(=O)N[C@@H](CC(N)=O)C(=O)N[C@@H](CC(N)=O)C(=O)N[C@H](C(=O)N[C@@H](CC(C)C)C(=O)N[C@@H](CC(C)C)C(=O)N[C@@H](CS)C(=O)N1CCC[C@H]1C(=O)N[C@H](C(=O)N[C@@H](CC(=O)O)C(=O)N[C@@H](CS)C(=O)O)[C@@H](C)O)[C@@H](C)O)C(C)C` [compound 26, PCVIGGVGNNTLLCPTDC] (H-PCVIGGVGNNTLLCPTDC-OH; N-terminus and C-terminus assumed) are 51.6% and 216,706 luciferase units (lumens).
On to `CC[C@H](C)[C@H](NC(=O)[C@@H](NC(=O)[C@H](CC(C)C)NC(=O)[C@H](CC(N)=O)NC(=O)[C@H](CCC(=O)O)NC(=O)[C@H](CC(C)C)NC(=O)[C@H](C)NC(=O)[C@H](C)NC(=O)[C@H](CCC(=O)O)NC(=O)[C@H](C)NC(=O)[C@H](CCC(N)=O)NC(=O)[C@H](CO)NC(=O)[C@@H](NC(=O)[C@H](CC(C)C)NC(=O)[C@H](CC(C)C)NC(=O)[C@H](CCSC)NC(=O)[C@H](CCSC)NC(=O)[C@@H](N)Cc1c[nH]c2ccccc12)[C@@H](C)CC)C(C)C)C(=O)O` [compound 50, WMMLLISQAEAALENLVI], for which the Percent inhibition is 87.9%. Moreover, the Luciferase units under setting [1] is on record as 58,790 luciferase units (lumens).
As for `CC[C@H](C)[C@H](NC(=O)[C@H](Cc1c[nH]cn1)NC(=O)[C@H](Cc1c[nH]c2ccccc12)NC(=O)[C@H](CO)NC(=O)CNC(=O)[C@H](CC(N)=O)NC(=O)[C@@H](NC(=O)[C@H](CC(N)=O)NC(=O)[C@@H](NC(=O)[C@H](CC(C)C)NC(=O)[C@H](CCC(N)=O)NC(=O)[C@@H](NC(=O)[C@H](CCCCN)NC(=O)[C@H](CCC(N)=O)NC(=O)[C@H](CO)NC(=O)[C@H](C)N)[C@@H](C)CC)C(C)C)[C@@H](C)O)C(=O)N[C@@H](CC(N)=O)C(=O)N[C@@H](CCCNC(=N)N)C(=O)O` [compound 83, ASQKIQLVNTNGSWHINR], the Percent inhibition is reported as −15.8%. Also, under setting [2], the Luciferase units is recorded as 518,993 luciferase units (lumens).
On the same counts, the results for `CC[C@H](C)[C@H](NC(=O)[C@@H](N)Cc1c[nH]cn1)C(=O)N[C@@H](CC(N)=O)C(=O)N[C@@H](CCCNC(=N)N)C(=O)N[C@H](C(=O)N[C@@H](C)C(=O)N[C@@H](CC(C)C)C(=O)N[C@@H](CC(N)=O)C(=O)N[C@@H](CS)C(=O)N[C@@H](CC(N)=O)C(=O)N[C@@H](CC(=O)O)C(=O)N[C@@H](CO)C(=O)N[C@@H](CC(C)C)C(=O)N[C@@H](CCC(N)=O)C(=O)N[C@H](C(=O)NCC(=O)N[C@@H](Cc1ccccc1)C(=O)N[C@@H](Cc1ccccc1)C(=O)O)[C@@H](C)O)[C@@H](C)O` [compound 84, HINRTALNCNDSLQTGFF] are 12.5% and 392,023 luciferase units (lumens).
For the compound `CC(C)C[C@H](NC(=O)[C@H](C)NC(=O)[C@H](C)NC(=O)[C@H](Cc1ccccc1)NC(=O)[C@H](Cc1ccccc1)NC(=O)CNC(=O)[C@@H](NC(=O)[C@H](CCC(N)=O)NC(=O)[C@H](CC(C)C)NC(=O)[C@H](CO)NC(=O)[C@H](CC(=O)O)NC(=O)[C@H](CC(N)=O)NC(=O)[C@H](CS)NC(=O)[C@@H](N)CC(N)=O)[C@@H](C)O)C(=O)N[C@@H](Cc1ccccc1)C(=O)N[C@@H](Cc1ccc(O)cc1)C(=O)N[C@@H](C)C(=O)N[C@@H](Cc1c[nH]cn1)C(=O)O` [compound 85, NCNDSLQTGFFAALFYAH], the Percent inhibition is reported as 74.9%. Also, the Luciferase units under setting [2] is listed as 112,260 luciferase units (lumens).
On the same counts, the results for `CC(C)[C@H](NC(=O)CNC(=O)[C@H](CS)NC(=O)[C@@H]1CCCN1C(=O)[C@H](CCCNC(=N)N)NC(=O)[C@@H]1CCCN1)C(=O)N[C@H](C(=O)N1CCC[C@H]1C(=O)N[C@@H](C)C(=O)N[C@@H](CO)C(=O)N[C@@H](CCC(N)=O)C(=O)N[C@H](C(=O)N[C@@H](CS)C(=O)NCC(=O)N1CCC[C@H]1C(=O)N[C@H](C(=O)N[C@@H](Cc1ccc(O)cc1)C(=O)N[C@@H](CS)C(=O)O)C(C)C)C(C)C)C(C)C` [compound 92, PRPCGVVPASQVCGPVYC] (H-PRPCGVVPASQVCGPVYC-OH; N-terminus and C-terminus assumed) are 16.9% and 372,400 luciferase units (lumens).
The corresponding values for `CSCC[C@H](NC(=O)[C@@H](NC(=O)[C@H](CC(=O)O)NC(=O)[C@@H](NC(=O)[C@@H](N)CCC(=O)O)[C@@H](C)O)C(C)C)C(=O)N[C@@H](CC(C)C)C(=O)N[C@@H](CC(C)C)C(=O)N[C@@H](CC(N)=O)C(=O)N[C@@H](CC(N)=O)C(=O)N[C@H](C(=O)N[C@@H](CCCNC(=N)N)C(=O)N1CCC[C@H]1C(=O)N1CCC[C@H]1C(=O)N[C@@H](CCC(N)=O)C(=O)NCC(=O)N[C@@H](CC(N)=O)C(=O)N[C@@H](Cc1c[nH]c2ccccc12)C(=O)N[C@@H](Cc1ccccc1)C(=O)O)[C@@H](C)O` [compound 98, ETDVMLLNNTRPPQGNWF] are −4.4% and 467,636 luciferase units (lumens).
On the same counts, the results for `CSCC[C@H](NC(=O)[C@H](Cc1c[nH]c2ccccc12)NC(=O)[C@@H](NC(=O)[C@H](CS)NC(=O)CNC(=O)[C@H](Cc1ccccc1)NC(=O)[C@H](Cc1c[nH]c2ccccc12)NC(=O)[C@H](CC(N)=O)NC(=O)CNC(=O)[C@H](CCC(N)=O)NC(=O)[C@@H]1CCCN1C(=O)[C@@H]1CCCN1C(=O)[C@H](CCCNC(=N)N)NC(=O)[C@@H](NC(=O)[C@H](CC(N)=O)NC(=O)[C@@H](N)CC(N)=O)[C@@H](C)O)[C@@H](C)O)C(=O)N[C@@H](CC(N)=O)C(=O)N[C@@H](CO)C(=O)O` [compound 99, NNTRPPQGNWFGCTWMNS] are 75.2% and 111,043 luciferase units (lumens).
Turning to `CC[C@H](C)[C@H](NC(=O)[C@H](CC(N)=O)NC(=O)[C@H](CS)NC(=O)[C@@H]1CCCN1)C(=O)NCC(=O)NCC(=O)N[C@H](C(=O)NCC(=O)N[C@@H](CC(N)=O)C(=O)N[C@@H](CCCNC(=N)N)C(=O)N[C@H](C(=O)N[C@@H](CC(C)C)C(=O)N[C@H](C(=O)N[C@@H](CS)C(=O)N1CCC[C@H]1C(=O)N[C@H](C(=O)N[C@@H](CC(=O)O)C(=O)N[C@@H](CS)C(=O)O)[C@@H](C)O)[C@@H](C)CC)[C@@H](C)O)C(C)C` [compound 102, PCNIGGVGNRTLICPTDC] (H-PCNIGGVGNRTLICPTDC-OH; N-terminus and C-terminus assumed), the Percent inhibition is reported as 15.8%. Moreover, under setting [2], the Luciferase units is on record as 377,216 luciferase units (lumens).
The corresponding values for `CSCC[C@H](N)C(=O)N[C@@H](Cc1ccc(O)cc1)C(=O)N[C@H](C(=O)NCC(=O)NCC(=O)N[C@H](C(=O)N[C@@H](CCC(=O)O)C(=O)N[C@@H](Cc1c[nH]cn1)C(=O)N[C@@H](CCCNC(=N)N)C(=O)N[C@@H](CC(C)C)C(=O)N[C@@H](CC(N)=O)C(=O)N[C@@H](C)C(=O)N[C@@H](C)C(=O)N[C@@H](CS)C(=O)N[C@@H](CC(N)=O)C(=O)N[C@@H](Cc1c[nH]c2ccccc12)C(=O)N[C@H](C(=O)N[C@@H](CCCNC(=N)N)C(=O)O)[C@@H](C)O)C(C)C)C(C)C` [compound 110, MYVGGVEHRLNAACNWTR] are −34.5% and 602,506 luciferase units (lumens).
On the same counts, the results for `CC(C)C[C@H](NC(=O)[C@H](CCC(=O)O)NC(=O)[C@H](CO)NC(=O)[C@H](CCCNC(=N)N)NC(=O)[C@H](CC(=O)O)NC(=O)[C@H](CCCNC(=N)N)NC(=O)[C@H](CC(=O)O)NC(=O)[C@H](CCC(=O)O)NC(=O)[C@H](CC(C)C)NC(=O)[C@H](CC(N)=O)NC(=O)[C@H](CS)NC(=O)[C@H](CCCNC(=N)N)NC(=O)[C@H](CCC(=O)O)NC(=O)CNC(=O)[C@H](CCCNC(=N)N)NC(=O)[C@@H](NC(=O)[C@H](Cc1c[nH]c2ccccc12)NC(=O)[C@@H](N)CC(N)=O)[C@@H](C)O)C(=O)O` [compound 112, NWTRGERCNLEDRDRSEL] are −17.8% and 527,950 luciferase units (lumens).
